Measured values published in US5032398A, “Selective modification of the catalytic subunit of pertussis toxin” (priority 1986, dated 1991).

What was measured:
pertussis toxin [1] = target: T1, pertussis toxin (Bordetella pertussis, UniProt P04977); experiment: Inactivation of NADase activity by iodoacetate after different activator combinations (Example Seven); type: biochemical
Method: Pertussis toxin was incubated first at 37° C. for fifteen minutes in […] buffer A (100 mM Tris-HCl, pH 8.0 with 1 mM NaEDTA). EDTA was added to chelate divalent cations, which may promote oxidation of free --SH groups. During this incubation, DTT and ATP were present in concentrations of 1 mM each, and CHAPS was present in a concentration of 1 weight percent. Labelled iodoacetate was then added ([…], 12.5 mM), and the tube incubated on ice for twenty hours. The sample was then mixed with sodium dodecylsulfate and β-mercaptoethanol, heated at 95° C. for one minute, and electrophoresed. After electrophoresis, the gel was fixed, treated with Fluorohance (Research Products International), dried and used to expose x-ray film.
(§1) Pertussis toxin was incubated at 37° C. for fifteen minutes as described in Example Six, and then a second incubation was begun by adding 10 μl buffer A with or without 12.5 mM iodoacetate, mixing the contents of the tube and lowering the temperature to 30° C. After fifteen minutes, the tubes were shifted to an ice bath for ten minutes. A third incubation was then begun by adding 10 μl buffer A containing 200 mM DTT to those tubes containing iodoacetate to scavenge the iodoacetate. To those tubes not containing iodoacetate during the second incubation, a mixture of 200 mM DTT and 12.5 mM iodoacetate in buffer A, previously incubated for an hour on ice, was added. The third incubation was continued for one hour on ice.
(§2) The contents of each tube were then assayed for NADase activity by adding 40 μl of a reaction mix consisting of buffer A containing carbon-14 labelled NAD (final concentration in the 100 μl final volume was 25 μM), and 50 mM sodium chloride. Different reaction mixtures with various additions were used, so that in all tubes the final concentration of ATP was 1 mM and CHAPS was 1 weight percent. The assay was conducted at 37° C. for sixty minutes, and the released labelled nicotinimide was isolated and counted. The iced controls were formed by incubating pertussis toxin (1 μg) on ice in 10 mM sodium phosphate (pH 7) and 50 mM sodium chloride during the first three incubations. […] The first three incubations were done under a nitrogen atmosphere using degassed conditions, and the second and third incubations were done under subdued light.

pertussis toxin [2] = target: T1, pertussis toxin; experiment: Inactivation of NADase activity by sulfhydryl reagents, 6 minutes or 18 hours at 0-4° (Example Eight); type: biochemical
Method: as §1, §2
The procedure followed in Example Seven was repeated for this study, except that N-ethylmaleimide, chloroacetamide or chloroacetate were substituted for iodoacetate. After the 30° C. incubation, the tubes were either incubated for six minutes or eighteen hours at 0°-4° C. before the 10 μl of 200 mM DTT (with or without quenched reagent) was added. Those tubes receiving the DTT after six minutes were incubated for nineteen hours at 0°-4° C. prior to the NADase assay. Those receiving the DTT after eighteen hours were incubated with DTT for one hour, as in Example Seven. The tubes were then assayed for NADase activity at the same time.

[3] = first incubation: ATP, CHAPS, 18 hours at 0-4°
[4] = first incubation: ATP, DTT, CHAPS, 6 minutes at 0-4°
[5] = first incubation: ATP, DTT, CHAPS, 18 hours at 0-4°
[6] = first incubation: CHAPS, 18 hours at 0-4°
[7] = first incubation: DTT, CHAPS, 18 hours at 0-4°
[8] = first incubation: none, 15 minutes at 30° C. followed by 18 hours at 0-4°

T1 sequence (P04977 35-269 limits assumed): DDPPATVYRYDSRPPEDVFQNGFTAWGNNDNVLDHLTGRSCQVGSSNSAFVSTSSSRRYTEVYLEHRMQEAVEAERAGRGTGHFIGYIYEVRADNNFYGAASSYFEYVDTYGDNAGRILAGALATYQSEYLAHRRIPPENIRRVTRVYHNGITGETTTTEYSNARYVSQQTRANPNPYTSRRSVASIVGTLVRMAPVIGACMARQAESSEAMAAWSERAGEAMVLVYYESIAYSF

For O=C(O)CI [iodoacetate], the “Time to inactivate toxin” value (pertussis toxin [1]; at 30° C.) was “within about fifteen minutes”, the “Percent NADase activity relative to no addition to second incubation” value (pertussis toxin [1]; first incubation: ATP) was 153 and the “Percent NADase activity relative to no addition to second incubation” value (pertussis toxin [1]; first incubation: ATP, CHAPS) was 80. The “Percent NADase activity relative to no addition to second incubation” value (pertussis toxin [1]; first incubation: ATP, DTT) was 107, the “Percent NADase activity relative to no addition to second incubation” value (pertussis toxin [1]; first incubation: ATP, DTT, CHAPS) was 14 and the “Percent NADase activity relative to no addition to second incubation” value (pertussis toxin [1]; first incubation: CHAPS) was 108. For the same compound, the “Percent NADase activity relative to no addition to second incubation” value (pertussis toxin [1]; first incubation: DTT) was 123, the “Percent NADase activity relative to no addition to second incubation” value (pertussis toxin [1]; first incubation: DTT, CHAPS) was 84 and the “Percent NADase activity relative to no addition to second incubation” value (pertussis toxin [1]; first incubation: none) was 87. For the same compound, the NADase activity (pertussis toxin [2]; [3]) was 110 pmol per μg per hour, the “percent of activity with no addition to second incubation” value (shortened to “percent of activity with no addition”) (pertussis toxin [2]; [3]) was 85% and the NADase activity (pertussis toxin [2]; [4]) was 17 pmol per μg per hour. The “percent of activity with no addition” value (pertussis toxin [2]; [4]) was 17%, the NADase activity (pertussis toxin [2]; [5]) was 3 pmol per μg per hour and the “percent of activity with no addition” value (pertussis toxin [2]; [5]) was 3%. The NADase activity (pertussis toxin [2]; [6]) was 171 pmol per μg per hour, the “percent of activity with no addition” value (pertussis toxin [2]; [6]) was 92% and the NADase activity (pertussis toxin [2]; [7]) was 151 pmol per μg per hour. For the same compound, the “percent of activity with no addition” value (pertussis toxin [2]; [7]) was 79%, the NADase activity (pertussis toxin [2]; [8]) was 59 pmol per μg per hour and the “percent of activity with no addition” value (pertussis toxin [2]; [8]) was 116%.
